Consider eleven compounds from PMC8220083 (Frontiers in Pharmacology, 2021).

What is called IC50 is the concentration that inhibits the measured activity by half. Lower therefore signals higher potency. In general, MIC refers to the lowest concentration found to suppress growth.

“And” between values parts separate entries of the source, which are not always exact repeats. Identical values can stand only once. Like-named read-outs stand apart in the source and are kept apart here.

In experiment [1] the target is T1, Human leukocyte elastase (HLE-G) (Homo sapiens, UniProt P08246).
T1 construct: purchased Athens Research & Technology 16-14-051200
T1 sequence (P08246 30-267): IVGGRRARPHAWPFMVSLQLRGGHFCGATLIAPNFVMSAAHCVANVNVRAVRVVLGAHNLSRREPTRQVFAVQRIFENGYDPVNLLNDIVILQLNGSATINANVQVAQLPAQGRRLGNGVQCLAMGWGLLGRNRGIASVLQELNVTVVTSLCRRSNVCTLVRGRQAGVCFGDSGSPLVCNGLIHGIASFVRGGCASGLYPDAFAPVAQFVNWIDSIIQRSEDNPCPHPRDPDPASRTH
As to the kind of experiment: Inhibition of HLE-G enzymatic activity. It is filed as biochemical. As to conditions: for IC50: compound vs. HLE-G (75 µM), 10 min at 37°C, 5 min with substrate; for HLE-G Molar excess: molar excess of compound to HLE-G at IC50. On the procedure:
Inhibition of HLE-G enzymatic activity. Two-fold serial dilutions of HLE-G in 100 µl Tris-buffered saline (pH 7.8) were added to rows of wells of a microtiter plate as previously described ([Bristow et al., 1991]). […] The microtiter plate was incubated for 10 min at 37°C. The HLE-G substrate (Succinyl-L-Ala-L-Ala-L-Ala-p-nitroanilide, Sigma) was added to all wells, and absorbance at 405 nm was detected kinetically at 23°C using an MRX plate reader.

In experiment [2] the target is T2, cell surface human leukocyte elastase (HLE-CS) on U937 Clone 10 cells (Homo sapiens, UniProt P08246).
T2 construct: endogenous in cells; host or cells: human U937 Clone 10 cells
T2 sequence (P08246 30-267): T1 sequence (P08246 30-267)
In words: Cellular adherence to glass (HLE-CS interaction). It is filed as cell-based. To be noted: 2,000 U937 cells per well; for HLE-CS Adherent cells: at optimal concentration; for HLE-CS Optimal concentration: optimal adherence concentration. An excerpt:
Cellular adherence. […] […] Unattached cells were removed by washing using AIM-V, and attached cells were fixed by application of 4% paraformaldehyde. Attached cells were counted by light microscopy.

The format of experiment [3] is in vivo, human. As to conditions: HIV-1-infected, 8 weekly infusions 120 mg/kg. The procedure: Clinical trial NCT01731691: This clinical trial was a double-blind, randomized study as previously described ([Bristow et al., 2019]). Written informed consent was received from 12 individuals, 8 HIV-1-infected individuals and 4 uninfected controls. Blood was collected weekly at the same time of day at baseline and for 8 subsequent weeks from uninfected, untreated controls and from HIV-1-infected individuals who were treated weekly with Prolastin-C (n = 3) or with placebo (n = 5). […] Inclusion criteria HIV-1 uninfected, untreated controls were the same as for HIV-1 infected subjects excluding HIV-related criteria. Grifols Biotherapeutics contributed a sufficient quantity of Prolastin-C (lot# 26NLK52) for administration of 8 weekly infusions at a dose of 120 mg/kg. The study protocol was approved by Copernicus Group Independent Institutional Review Board, Durham, NC. Drug delivery and blood collection were performed at ACRIA, New York, NY.
Human apolipoproteins measurement. Total cholesterol, high density lipoprotein (HDL), low density lipoprotein (LDL), triglycerides, apolipoprotein E (apoE), and apolipoprotein A1 (apoA1) measurements were performed by ICON Central Laboratory, Farmingdale, NY. Cholesterol, HDL, and triglycerides were measured using the Chol2, HDLC3, TRIGL methods on the Roche/Hitachi cobas c analyzer. LDL was calculated using the formula total cholesterol – HDL – (triglycerides/5). ApoE was quantitated using the Kamiya Biomedical Co. K-assay immunoturbidimetric method. ApoA1 was quantitated using the Siemens N antisera method by immunonephelometry on the BN II and BN ProSpec System. Total apoB and apoB48 measurements were contracted by ICON Central Laboratory to Nexelis (formerly Pacific Biomarkers). Total apoB was measured in serum by immunoturbidimetry using the Roche Modular P instrument and Goat polyclonal antibody specific for human apoB. ApoB48 wase measured by sandwich ELISA using a capture monoclonal antibody and detection using a biotin-conjugated polyclonal antibody followed by HRP-conjugated Streptavidin and addition of a chromogenic substrate using a SoftMax Pro ELISA plate reader. ApoB100 was calculated as total apoB minus apoB48. Cholesterol, triglycerides, HDL, LDL, apoE and apoA1 were measured by ICON Central Laboratory, Farmingdale, NY.

Another experiment deals with E. coli DH5-Alpha. In words: Kirby-Bauer Disk Test of antibiotic activity. It counts as cell-based. As to conditions: for diameter of zone of inhibition: 16 h at 37°C; for inhibitory dose: disk test. The procedure:
Antibiotic activity. […] D-Ampicillin-sensitive E. coli DH5-Alpha was cultured overnight in LB broth, and the cell concentration was calibrated using McFarland Turbidity Standard […] for <300 × 10^6 CFU. At this concentration of cells, bacteria were spread on Mueller-Hinton agar plates. […] After incubation for 16 h at 37°C, plates were examined for zones of inhibition.

Another experiment has as its system U937 Clone 10 cells. In words: Receptor polarization and endocytosis of SHIV. It is filed as cell-based, human. As to conditions: for SHIV localization: cells preconditioned 15 min 37°C. The procedure: Receptor Polarization and Endocytosis. To Eppendorf tubes that been precoated with RPMI-1640 containing 10% fetal bovine serum to prevent attachment, were added 250 μl containing 5 × 10^5 U937 Clone 10 cells.
U937 Clone 10 cells were pulsed with SHIV particles (30 ng p27 or p24 per 10^6 cells) for 2 h at 2°C, a circumstance that allows binding, but prevents endocytosis. Alternatively, cells were pulsed with virus for 2 h at 37°C, a circumstance that allows binding and endocytosis ([Bristow et al., 2012]). Following pulsing for 2 h, cells were pelleted, resuspended in AIM-V and allowed to adhere to Alcian blue coated microscope slides for 8 min at 4°C, washed, and fixed using 4% paraformaldehyde as previously described ([Frank et al., 2002]). The presence of AT-2 virus in test cells was detected using dodecameric human CD4-IgG1 provided by the Laboratory of Immunoregulation, NIAID, NIH. This reagent specifically recognizes conformationally intact HIV/SIV envelope gp120. CD4-IgG1 was detected using rabbit anti-human IgG conjugated with horse radish peroxidase (SigmaAldrich). CD4-IgG-labeled cells were coupled to Oregon 488 fluorochrome using the tyramide signal amplification system (Life Science Products, Boston, MA, United States). In some cases, cells stained on slides were permeabilized using 0.05% saponin during the blocking step and further stained with the nuclear staining dye, 4′,6-diamidino-2-phenylindole (DAPI), mounted, and examined by epifluorescence microscopy using a Zeiss Axioplan to detect positive and negative reactions. Representative samples of positive and negative reactions were subsequently captured by confocal microscopy using a Perkin Elmer Operetta High Content Imaging System. Cells were analyzed by confocal microscopy using 2 μm scanning from the attached surface toward the unattached surface.

Experiment [4] is described as follows: Diet-induced obesity (DIO) mouse model, lipoprotein levels. It counts as in vivo, C57BL/6J mice. To be noted: 60% fat diet, daily oral gavage. On the procedure: Animal Studies. Animal studies were performed by Jackson Laboratory (Bar Harbor, ME), an OLAW-Assured and AAALAC accredited institution. All research was reviewed and approved by the Institutional Animal Care and Use Committee (IACUC) prior to commencing. The study used 16–17 weeks old male DIO C57BL/6J mice that had been maintained on a 10% (control) or 60% high-fat diet. […] Treatment was delivered by daily oral gavage at the same time of day for 12 weeks. Blood was collected by retro-orbital bleed every 3 weeks for measurement of total cholesterol, LDL, HDL, triglycerides, […] free fatty acids and glucose using the Beckman Coulter AU680 Chemistry System.
Food consumption was monitored twice weekly, and body weight was monitored weekly. As mice gained weight on the 60% high-fat diet during the study, dosing was adjusted accordingly. Mice were monitored for adverse effects (e.g., labored breathing, aberrant weight change). Three mice were lost during the study. […] The mice lost in the ezetimibe group were due to a severe bite wound and an unknown causes. The mouse lost in the Alphataxin group was due to an abnormal amount of gas in the stomach attributed to a gavaging error.

With `C[C@H]1[C@H](NC(=O)/C(=N\OC(C)(C)C(=O)O)c2csc(N)n2)C(=O)N1S(=O)(=O)O` [Aztreonam], in experiment [1], the IC50 was found to be 234 µM and the “HLE-G Molar excess” value stood at 3.1. In addition, in experiment [2], the “HLE-CS Adherent cells” value is 33 ± 4 and the “HLE-CS Optimal concentration” value came out at 1 nM.

Consider `C[C@@H](O)[C@H]1C(=O)N2C(C(=O)O)=C(S[C@@H]3CN[C@H](CNS(N)(=O)=O)C3)[C@H](C)[C@H]12` [Doripenem], for which, in experiment [1], the IC50 is 178 µM and the “HLE-G Molar excess” value came out at 2.4. In experiment [2], the “HLE-CS Adherent cells” value is recorded as 52 ± 6 and the “HLE-CS Optimal concentration” value worked out at 100 nM.

Consider `CC1(C)S[C@@H]2[C@H](NC(=O)COc3ccccc3)C(=O)N2[C@H]1C(=O)O` [Pen V, Penicillin V], for which, in experiment [1], the IC50 is 262 µM and the “HLE-G Molar excess” value came out at 3.5. Besides, in experiment [2], the “HLE-CS Adherent cells” value is listed as 30 ± 4 and the “HLE-CS Optimal concentration” value is given as 10 nM.

With `CO/N=C(\C(=O)N[C@@H]1C(=O)N2C(C(=O)O)=C(COC(N)=O)CS[C@H]12)c1ccco1` [Cefuroxine, Cefuroxime], in experiment [1], the IC50 came to 167 µM and the “HLE-G Molar excess” value came out at 2.2. In addition, in experiment [2], the “HLE-CS Adherent cells” value is recorded as 34 ± 8 and the “HLE-CS Optimal concentration” value was 1 nM.

For `CC1(C)S[C@@H]2[C@H](NC(=O)[C@H](N)c3ccc(O)cc3)C(=O)N2[C@H]1C(=O)O` [Amoxicillin], in experiment [2], the “HLE-CS Adherent cells” value was found to be 54 ± 20 and the “HLE-CS Optimal concentration” value worked out at 1 nM.

Regarding “Prolastin-C: sterile plasma-purified α1PI preparation from Grifols, lot# 26NLK52, infused weekly at 120 mg/kg”, in experiment [3], the HDL levels result is given as “decreased from above normal to below normal levels”, the apoA1 levels entry was “decreased from above normal to below normal levels”, the apoB48 levels entry was “decreased from above normal to below normal levels” and the apoB100 levels result was “did not significantly decrease”. Besides, in experiment [3], the apoE levels result was “decreased from above normal to normal levels”, the total cholesterol levels entry was “decreased from above normal to normal levels” and the triglycerides levels result is reported as “decreased from above normal to normal levels”. Further, in experiment [3] (vs placebo arm), the LDL levels result is “significantly lower than in the placebo arm”.

Take `C[C@@H](O)[C@H]1C(=O)N2C(C(=O)O)=C([C@H]3CCCO3)S[C@H]12` [Faropenem]: in experiment [1], the IC50 worked out at 203 µM and the “HLE-G Molar excess” value came out at 2.7. In addition, in experiment [2], the “HLE-CS Adherent cells” value is listed as 23 ± 4 and the “HLE-CS Optimal concentration” value is 10 nM.

`Cc1onc(-c2c(Cl)cccc2Cl)c1C(=O)N[C@@H]1C(=O)N2[C@@H]1SC(C)(C)[C@@H]2C(=O)O` [Dicloxacillin]: in experiment [1], inhibition was half-maximal at 232 µM (IC50) and the “HLE-G Molar excess” value came to 3.1. Besides, in experiment [2], the “HLE-CS Adherent cells” value stood at 26 ± 9 and the “HLE-CS Optimal concentration” value was determined as 1 nM.

With `CC1(C)S[C@@H]2[C@H](NC(=O)[C@H](N)c3ccccc3)C(=O)N2[C@H]1C(=O)O` [D-Ampicillin], the “diameter of zone of inhibition” value in the experiment on E. coli DH5-Alpha (0.005 mM) came to 1.4 cm; in the experiment with E. coli DH5-Alpha (0.5 mM) it was 3.8 cm; in the experiment with E. coli DH5-Alpha (5 mM (Figure 2 legend)) it was 3.0 cm; in the experiment on E. coli DH5-Alpha (50 mM (Figure 2 legend)), 3.8 cm. In addition, in the experiment on E. coli DH5-Alpha, the inhibitory dose was ≥ 0.005 mM and ≥ 1.75 μg/ml.

As to `CC1=C(C(=O)O)N2C(=O)[C@@H](NC(=O)[C@H](N)c3ccccc3)[C@H]2SC1` [Cephalexin], in experiment [2], the “HLE-CS Adherent cells” value was 27 ± 10.

For `CC1(C)S[C@@H]2[C@H](NC(=O)[C@@H](N)c3ccccc3)C(=O)N2[C@H]1C(=O)O` [Alphataxin], the “antibiotic effectiveness against E. coli” value in the experiment on E. coli DH5-Alpha is given as “not an effective antibiotic against E. coli”. Moreover, the “diameter of zone of inhibition” value in the experiment with E. coli DH5-Alpha (0.05 mM) was 1.5 cm; with E. coli DH5-Alpha (0.5 mM), 2.8 cm; in the experiment on E. coli DH5-Alpha (5 mM (Figure 2 legend)) it was 1.5 cm; in the experiment with E. coli DH5-Alpha (50 mM (Figure 2 legend)), 2.8 cm. Moreover, the inhibitory dose in the experiment with E. coli DH5-Alpha was ≥ 0.05 mM and ≥ 17.5 μg/ml. Also, the MIC in the experiment on E. coli DH5-Alpha (extrapolated from 10-fold greater minimum inhibitory dose than D-ampicillin) was ≥ 80 µg/mL. For the same compound, in the experiment on U937 Clone 10 cells, the “cellular locomotion and endocytosis” value was “mimics α1PI activity by binding to HLE-CS and inducing cellular locomotion and endocytosis”. The SHIV localization entry in the experiment with U937 Clone 10 cells (SHIV 2 h at 2°C) is reported as “SHIV detected only on the exterior plasma membrane of polarized cells, never internalized into the cells”; with U937 Clone 10 cells (SHIV 2 h at 37°C), “SHIV was detected internal to the cells”. Besides, the LDL levels result in experiment [4] (after 3 weeks, vs vehicle control, ezetimibe 10 mg/kg, Alphataxin 5 mg/kg) is given as “significantly decreased”. Moreover, the “LDL lowering compared with ezetimibe” value in experiment [4] (p = 0.90) is “equivalent to ezetimibe”. Besides, in experiment [4] (vs vehicle control, weeks 3, 6, 8), the triglyceride levels entry is “significantly lowered”.
